According to patent US10052320B2, “Substituted quinoxalines as FGFR kinase inhibitors” (ASTEX THERAPEUTICS LIMITED, priority 2011, dated 2018):

Columns and labels:
[1] = molecular target: FGFR2 (h) (Homo sapiens, UniProt P21802); test: FGFR2 (enzymatic assay), TR-FRET; assay type: biochemical; details: read-out: FGFR 2 pIC50 (converted)
Procedure: In a final reaction volume of 30 μL, FGFR2 (h) (150 ng/ml) was incubated with 50 mM HEPES pH 7.5, 6 mM MnCl2, 1 mM DTT, 0.1 mM Na3VO4, 0.01% Triton-X-100, 500 nM Btn-Flt3 and 0.4 μM ATP in the presence of compound (1% DMSO final). […] Time-Resolved Fluorescence Resonance Energy Transfer (TR-FRET) signal (ex340 nm. Em 620 nm, em 655 nm) was measured afterwards and results are expressed in (Relative Fluorescence Units).

[2] = molecular target: FGFR3 (h) (Homo sapiens, UniProt P22607); test: FGFR3 (enzymatic assay), TR-FRET; assay type: biochemical; details: read-out: FGFR 3 pIC50 (converted)
FGFR3 (h), sequence (P22607 23-806): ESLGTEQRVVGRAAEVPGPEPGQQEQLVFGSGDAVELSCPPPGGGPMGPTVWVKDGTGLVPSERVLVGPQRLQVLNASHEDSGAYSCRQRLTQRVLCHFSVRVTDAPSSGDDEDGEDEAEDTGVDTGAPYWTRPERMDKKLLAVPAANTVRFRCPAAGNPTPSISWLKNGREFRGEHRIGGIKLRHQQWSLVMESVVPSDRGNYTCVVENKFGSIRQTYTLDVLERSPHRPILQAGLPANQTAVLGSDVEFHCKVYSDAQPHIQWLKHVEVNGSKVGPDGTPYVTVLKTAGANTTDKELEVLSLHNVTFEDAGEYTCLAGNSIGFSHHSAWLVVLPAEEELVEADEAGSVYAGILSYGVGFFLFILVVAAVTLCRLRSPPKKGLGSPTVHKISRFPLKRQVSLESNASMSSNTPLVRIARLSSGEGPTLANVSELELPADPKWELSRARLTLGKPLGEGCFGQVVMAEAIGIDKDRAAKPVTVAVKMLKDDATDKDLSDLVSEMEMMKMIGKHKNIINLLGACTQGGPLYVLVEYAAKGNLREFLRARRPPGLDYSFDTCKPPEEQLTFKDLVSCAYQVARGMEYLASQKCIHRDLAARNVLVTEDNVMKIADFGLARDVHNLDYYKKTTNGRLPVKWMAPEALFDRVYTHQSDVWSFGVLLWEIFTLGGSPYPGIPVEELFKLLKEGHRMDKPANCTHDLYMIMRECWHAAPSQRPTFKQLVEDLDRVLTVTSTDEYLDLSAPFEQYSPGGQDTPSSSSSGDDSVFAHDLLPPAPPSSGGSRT
Procedure: In a final reaction volume of 30 μL, FGFR3 (h) (40 ng/ml) was incubated with 50 mM HEPES pH 7.5, 6 mM MnCl2, 1 mM DTT, 0.1 mM Na3VO4, 0.01% Triton-X-100, 500 nM Btn-Flt3 and 25 μM ATP in the presence of compound (1% DMSO final). […] Time-Resolved Fluorescence Resonance Energy Transfer (TR-FRET) signal (ex340 nm. Em 620 nm, em 655 nm) was measured afterwards and results are expressed in RFU (Relative Fluorescence Units).

[3] = molecular target: KDR (h) (VEGFR2) (Homo sapiens, UniProt P35968); test: KDR (VEGFR2) (enzymatic assay), TR-FRET; assay type: biochemical
KDR (h) (VEGFR2), sequence (P35968 20-1356): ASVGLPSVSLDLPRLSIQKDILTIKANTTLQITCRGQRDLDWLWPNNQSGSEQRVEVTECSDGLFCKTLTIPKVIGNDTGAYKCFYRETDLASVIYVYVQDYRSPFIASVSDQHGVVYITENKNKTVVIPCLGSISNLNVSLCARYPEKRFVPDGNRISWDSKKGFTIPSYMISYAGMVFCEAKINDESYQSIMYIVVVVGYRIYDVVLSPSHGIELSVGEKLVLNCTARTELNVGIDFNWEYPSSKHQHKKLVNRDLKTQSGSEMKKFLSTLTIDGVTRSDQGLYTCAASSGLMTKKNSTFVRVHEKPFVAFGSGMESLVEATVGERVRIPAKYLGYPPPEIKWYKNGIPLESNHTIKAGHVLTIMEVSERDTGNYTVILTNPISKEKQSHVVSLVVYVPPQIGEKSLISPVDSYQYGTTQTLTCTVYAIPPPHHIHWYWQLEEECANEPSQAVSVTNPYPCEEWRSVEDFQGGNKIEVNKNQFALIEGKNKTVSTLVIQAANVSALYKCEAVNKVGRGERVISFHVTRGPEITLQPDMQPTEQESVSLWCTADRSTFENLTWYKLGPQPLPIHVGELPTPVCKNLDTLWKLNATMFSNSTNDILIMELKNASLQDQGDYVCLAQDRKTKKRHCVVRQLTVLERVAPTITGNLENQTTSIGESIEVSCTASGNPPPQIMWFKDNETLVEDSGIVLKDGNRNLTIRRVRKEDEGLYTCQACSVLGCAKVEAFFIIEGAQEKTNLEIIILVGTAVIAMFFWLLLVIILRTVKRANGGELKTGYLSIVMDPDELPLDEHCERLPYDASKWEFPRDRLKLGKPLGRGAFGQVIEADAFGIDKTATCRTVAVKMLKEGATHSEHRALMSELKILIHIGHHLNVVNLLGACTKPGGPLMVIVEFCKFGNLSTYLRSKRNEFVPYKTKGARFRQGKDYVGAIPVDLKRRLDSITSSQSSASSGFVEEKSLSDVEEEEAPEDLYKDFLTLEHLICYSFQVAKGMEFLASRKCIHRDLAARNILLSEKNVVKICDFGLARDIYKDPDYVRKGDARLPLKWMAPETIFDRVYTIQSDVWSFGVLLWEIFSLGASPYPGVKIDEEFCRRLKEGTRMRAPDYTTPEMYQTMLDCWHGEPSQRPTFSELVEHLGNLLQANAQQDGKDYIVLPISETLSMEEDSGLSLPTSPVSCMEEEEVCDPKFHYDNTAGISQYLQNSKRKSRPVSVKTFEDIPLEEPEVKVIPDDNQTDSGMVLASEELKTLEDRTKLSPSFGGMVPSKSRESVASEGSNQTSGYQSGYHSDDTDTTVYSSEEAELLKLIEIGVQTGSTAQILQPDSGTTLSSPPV
In short: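 Enzyme at 150 ng/ml was incubated 120 min at room temperature with 500 nM Btn-Flt3 peptide and 3 μM ATP in 50 mM HEPES pH 7.5, 6 mM MnCl2, 1 mM DTT, 0.1 mM Na3VO4, 0.01% Triton-X-100, 1% DMSO final. EDTA stop with Eu-anti-P-Tyr/SA-XL-665, 60 min; TR-FRET read in RFU.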

[4] = molecular target: Ba/F3-FGFR3-transfected cells (Homo sapiens, UniProt P22607); test: Ba/F3-FGFR3 (minus IL3) cellular proliferation assay, Alamar Blue; assay type: cell-based; details: minus IL3, 384 well
Ba/F3-FGFR3-transfected cells, sequence (P22607 whole entry, change not shown): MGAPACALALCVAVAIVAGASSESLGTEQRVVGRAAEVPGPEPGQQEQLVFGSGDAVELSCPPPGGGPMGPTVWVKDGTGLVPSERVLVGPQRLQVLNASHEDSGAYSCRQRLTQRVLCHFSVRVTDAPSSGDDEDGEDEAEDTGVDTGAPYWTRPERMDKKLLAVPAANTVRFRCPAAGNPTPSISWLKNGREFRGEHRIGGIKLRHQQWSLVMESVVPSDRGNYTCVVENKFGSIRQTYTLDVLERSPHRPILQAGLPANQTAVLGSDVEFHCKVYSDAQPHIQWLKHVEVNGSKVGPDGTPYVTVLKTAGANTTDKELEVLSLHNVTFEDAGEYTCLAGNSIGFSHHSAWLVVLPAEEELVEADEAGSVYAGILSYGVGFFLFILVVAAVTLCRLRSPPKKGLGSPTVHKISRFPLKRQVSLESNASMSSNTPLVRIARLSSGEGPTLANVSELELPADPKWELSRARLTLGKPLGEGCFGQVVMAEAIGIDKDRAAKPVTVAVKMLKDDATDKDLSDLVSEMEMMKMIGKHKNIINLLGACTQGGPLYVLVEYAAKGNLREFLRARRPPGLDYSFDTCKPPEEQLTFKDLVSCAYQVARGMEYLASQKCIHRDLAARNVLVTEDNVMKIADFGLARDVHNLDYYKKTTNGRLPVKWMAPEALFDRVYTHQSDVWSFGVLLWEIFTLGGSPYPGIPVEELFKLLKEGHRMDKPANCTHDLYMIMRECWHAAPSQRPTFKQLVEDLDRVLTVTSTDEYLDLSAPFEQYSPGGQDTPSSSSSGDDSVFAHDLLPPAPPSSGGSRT
In short: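 Ba/F3 cells transfected with FGFR3 were exposed to compound in RPMI-1640 with 10% FBS for 24 h at 37 °C, 5% CO2. Alamar Blue (resazurin) was then added for 4 h, and fluorescence was read at ex 540/em 590 nm.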

[5] = tested on: Ba/F3-Flt3-transfected cells in the presence of 10 ng/ml murine IL3; test: Ba/F3-Flt3 (plus IL3) cellular proliferation counterscreen, Alamar Blue; assay type: cell-based; details: Mus musculus; plus 10 ng/ml murine IL3; read-out: BAF3-FLT3 (PLUS IL3) 384 well pIC50 (converted)

FGFR2 (h), sequence (P21802 22-821): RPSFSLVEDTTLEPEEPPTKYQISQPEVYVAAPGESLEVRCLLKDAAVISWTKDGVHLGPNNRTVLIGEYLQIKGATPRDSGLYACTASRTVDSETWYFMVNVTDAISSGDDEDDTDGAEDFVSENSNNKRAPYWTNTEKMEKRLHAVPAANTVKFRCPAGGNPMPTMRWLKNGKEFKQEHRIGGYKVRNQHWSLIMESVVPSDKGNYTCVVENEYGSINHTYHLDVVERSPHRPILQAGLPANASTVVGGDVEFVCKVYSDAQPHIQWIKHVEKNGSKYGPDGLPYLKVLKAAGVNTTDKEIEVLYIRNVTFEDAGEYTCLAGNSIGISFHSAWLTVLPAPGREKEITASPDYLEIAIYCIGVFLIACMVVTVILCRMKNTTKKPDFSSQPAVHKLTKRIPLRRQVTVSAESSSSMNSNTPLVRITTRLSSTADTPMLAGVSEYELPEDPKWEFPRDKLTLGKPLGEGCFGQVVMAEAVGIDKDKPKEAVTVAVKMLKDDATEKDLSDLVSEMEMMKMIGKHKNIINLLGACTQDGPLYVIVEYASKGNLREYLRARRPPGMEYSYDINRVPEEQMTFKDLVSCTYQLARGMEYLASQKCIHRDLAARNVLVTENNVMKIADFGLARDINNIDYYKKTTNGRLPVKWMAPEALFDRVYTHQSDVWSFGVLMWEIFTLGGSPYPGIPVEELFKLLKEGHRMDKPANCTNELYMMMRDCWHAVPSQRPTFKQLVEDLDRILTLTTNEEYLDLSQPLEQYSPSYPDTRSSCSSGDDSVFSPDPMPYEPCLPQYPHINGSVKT

IC50 [1]	IC50 [2]	IC50 [3]	BAF3-FGFR 3 (MIN IL3) 384 well pIC50 [4]	melting point	Compound	IC50 [5]
12.6 nM	4.9 nM	129 nM	6.12	171 °C	COc1cc(OC)cc(N(CCO)c2ccc3ncc(-c4ccc(N5CCNCC5)nc4)nc3c2)c1 [Compound 165]	~5750 nM
3.63 nM	0.832 nM	23.4 nM	~6.1	194 °C	COc1cc(OC)cc(N(CCO)c2ccc3ncc(-c4ccc(N5CCNCC5)cc4)nc3c2)c1 [Compound 166]	~5620 nM
7.76 nM	11 nM	251 nM	7.09	56 °C	COc1cc(OC)cc(N(CCNC(C)C)c2ccc3ncc(-n4cnc(COC(C)=O)c4)nc3c2)c1 [Compound 167]	> 10000 nM
3.72 nM	3.24 nM	63.1 nM	~7.15	135 °C	COc1cc(OC)cc(N(CCNC(C)C)c2ccc3ncc(-c4ccc(N5CCOCC5)nc4)nc3c2)c1 [Compound 168]	~8320 nM
15.8 nM	6.46 nM	126 nM	6.19	164 °C	COc1cc(OC)cc(N(CCN2CCOCC2)c2ccc3ncc(-c4ccc(N)nc4)nc3c2)c1 [Compound 169]	> 10000 nM
724 nM	501 nM	> 1000 nM	<5	147 °C	COc1cc(OC)cc(N(CCO)c2ccc3ncc(/C(C)=N/OC(C)(C)C)nc3c2)c1 [Compound 171]	> 10000 nM
32.4 nM	10.2 nM	479 nM	6.08	142 °C	COc1cc(OC)cc(N(CCO)c2ccc3ncc(C4=CCN(C(=O)OC(C)(C)C)C4)nc3c2)c1 [Compound 173]	> 10000 nM
12.3 nM	2.88 nM	> 1000 nM	6.29	150 °C	COc1cc(OC)cc(N(CCO)c2ccc3ncc(C4=CCN(C(=O)OC(C)(C)C)CC4)nc3c2)c1 [Compound 178]	> 10000 nM
26.3 nM	126 nM	112 nM	5.64	121 °C	COc1cc(OC)cc(N(CCNC(C)C)c2ccc3ncc(C(=O)NCCCN4CCCCC4)nc3c2)c1 [Compound 182]	> 10000 nM
81.3 nM	162 nM	> 1000 nM	7.1	141 °C	COc1cc(OC)cc(N(CC#Cc2ncccc2OC)c2ccc3ncc(-c4cccnc4)nc3c2)c1 [Compound 183]	> 10000 nM
155 nM	110 nM	> 1000 nM	5.27	227 °C	COc1cc(OC)cc(N(CCO)c2ccc3ncc(C(=O)Nc4cnn(C)c4)nc3c2)c1 [Compound 184]	> 10000 nM
